What was measured:
stress = assay: Working examples: individuals with psychological, surgical or pre-surgical stress given HMB; assay type: in vivo, human; conditions: person
Method: A person suffering from severe symptoms of psychological stress as a result of a burn injury is administered 500 mg (Nutritional Liquid #1) of HMB 4 times a week for a year. One year later the symptoms of psychological stress are reduced.
A person suffering from symptoms of surgical stress is administered 200 mg of HMB (Nutritional Liquid #2) 7 times a week for 2 months. Two months later the symptoms of surgical stress are reduced.
A person suffering from symptoms of pre-surgical stress is administered 200 mg of HMB (capsules) once a day for 3 weeks preceding the individual's scheduled surgery. At the end of the 3 weeks, symptoms of pre-surgical stress are reduced.

[1] = system: peripheral blood mononuclear cells (PBMC) stimulated with CD3/CD28; assay: Cytokine production by PBMCs stimulated with CD3/CD28 for 24 hours, Bio-plex Cytokine Assay; assay type: cell-based, human
Method: To induce production of cytokines, PBMCs, isolated from peripheral blood of 10 normal healthy donors, are stimulated for 24 hours with the T cell stimulant CD3/CD28. Cytokine production is analyzed using a Bio-plex Cytokine Assay. The Bio-Plex technology is based on antibody-antigen interactions, wherein fluorescently labeled beads conjugated with antibody directed against the cytokine of interest bind target cytokine to the bead. This bead-cytokine complex is then exposed to a biotinylated detection antibody and a streptavidin-PE (phycoerythrin) reporter molecule. The signal from the reporter molecule is directly proportional to the amount of cytokine present, thus enabling cytokine quantification.
Each of the T cell-derived cytokines quantified in the experiment is described in the following table:
A t-test (paired sample, two-tailed) is performed in which a broad range of type 1 and type 2 cytokines are evaluated from cultures with HMB compared to cultures and without HMB.

seasonal allergies = assay: Working examples: individuals having or at risk for seasonal allergies given HMB; assay type: in vivo, human
Method: An individual who suffers from seasonal allergies in the spring is given 0.25-1 g of HMB (Nutritional Liquid #5) four times a week for a year. The symptoms of seasonal allergies are reduced the following spring.
The individual is administered 0.1-1.5 g of HMB (Nutritional Liquid #3) once a day for 6 months.

asthma = assay: Working examples: individuals having or at risk for asthma given HMB; assay type: in vivo, human
Method: A person who normally has four exacerbations of asthma per year is administered 1-10 g of HMB (Nutritional Liquid #5) four times a week for a year.
A person suffering from moderate persistent asthma is tested to determine the individual's FEV1 percentage value and the value is recorded.
A person suffering from mild intermittent asthma is tested to determine the individual's FEV1 percentage value and a value of 83% is recorded. The individual is then administered 1.5-6 g of HMB 4 times (Nutritional Liquid #5) a week for a year. One year later the individual's FEV1 remains above 80% and symptoms of asthma are reduced.
The individual is administered 250 mg of HMB (Nutritional Liquid #4) once a day for 6 months.

melanoma = assay: Working example: individual treated for melanoma given HMB; assay type: in vivo, human; conditions: person; 1 g HMB (Nutritional Liquid #1) 4 times a week for a year
[2] = system: respiratory tract infections; assay: Working examples: respiratory infections in individuals given HMB; assay type: in vivo, human; conditions: person recovered from pneumonia; 250 mg HMB (Nutritional Liquid #1) once a day for 6 months
Method: A person, after conventional treatment for and recovery from pneumonia, is administered 250 mg of HMB (Nutritional Liquid #1) once a day for 6 months.
A person is training for the New York Marathon. During their training period and for 3 months following the event they take two servings per day of Nutritional formula #6 (containing 1 gram HMB per serving).

ovarian cancer = assay: Working example: individual after chemotherapy for ovarian cancer given HMB; assay type: in vivo, human; conditions: person after chemotherapy; 2-10 g HMB (Nutritional Liquid #1) four times a week for a year
Method: A person who has undergone chemotherapy for ovarian cancer is administered 2-10 g of HMB (Nutritional Liquid #1) four times a week for a year.

kidney tumors = assay: Working example: individual treated for kidney tumors given HMB; assay type: in vivo, human; conditions: person; 750 mg HMB (capsules) four times a week for a year
Method: A person diagnosed with and has been treated for kidney tumors is administered 750 mg of HMB (capsules) four times a week for a year.

[3] = 1 mM, 5 mM and 10 mM HMB, FIG. 3
[4] = 5 mM and 10 mM HMB, PBMC, CD3/CD28, 24 hours, vs no HMB, FIG. 1
[5] = PBMC, CD3/CD28, 24 hours, vs no HMB, FIG. 1
[6] = PBMC, CD3/CD28, 24 hours, vs no HMB, FIG. 2
[7] = person, moderate persistent asthma, 5-10 g HMB (Nutritional Liquid #5) 4 times a week for a year

CC(C)(O)CC(=O)O [HMB, β-hydroxy-β-methylbutyrate]
symptoms of surgical stress, two months later (stress; 200 mg HMB (Nutritional Liquid #2) 7 times a week for 2 months): reduced
symptoms of pre-surgical stress at the end of 3 weeks (stress; 200 mg HMB (capsules) once a day for 3 weeks before surgery): reduced
symptoms of psychological stress after burn injury, one year later (stress; 500 mg HMB (Nutritional Liquid #1) 4 times a week for a year): reduced
IL-2 production relative to IL-5 production [1, 3]: increased
IL-2 production relative to IL-13 production [1, 3]: increased
IL-2 production relative to IL-4 production ([1]; 5 mM and 10 mM HMB, FIG. 3): Increases
IL-2 production relative to IL-10 production ([1]; 5 mM and 10 mM HMB, FIG. 3): Increases
IL-12 production relative to IL-4 ([1]; 5 mM and 10 mM HMB, FIG. 4): Increases
IL-12 production relative to IL-5 ([1]; 5 mM and 10 mM HMB, FIG. 4): Increases
IL-12 production relative to IL-10 ([1]; 5 mM and 10 mM HMB, FIG. 4): Increases
IL-12 production relative to IL-13 ([1]; 5 mM and 10 mM HMB, FIG. 4): Increases
IFNγ production relative to IL-5 ([1]; 5 mM and 10 mM HMB, FIG. 5): increases
IL-2 production (type 1 cytokine) ([1]; 5 mM and 10 mM HMB, PBMC of 10 healthy donors, CD3/CD28, 24 hours, vs no HMB, FIG. 1): Significant dose response increases
IFNγ production (type 1 cytokine) [1, 4]: Significant dose response increases
IL-12 production (type 1 cytokine) [1, 4]: Significant dose response increases
IFNγ production relative to IL-4 ([1]; 10 mM HMB, FIG. 5): Increases
IFNγ production relative to IL-10 ([1]; 10 mM HMB, FIG. 5): Increases
IL-10 production (type 2 cytokine) ([1]; 10 mM HMB, PBMC, CD3/CD28, 24 hours, vs no HMB, FIG. 2): significant decrease
GC-CSF production [1, 5]: does not significantly affect
TNFα production [1, 5]: does not significantly affect
IL-4 production (type 2 cytokine) [1, 6]: does not significantly affect
IL-5 production (type 2 cytokine) [1, 6]: does not significantly affect
IL-13 production (type 2 cytokine) [1, 6]: does not significantly affect
symptoms of seasonal allergies the following spring (seasonal allergies; individual, 0.25-1 g HMB (Nutritional Liquid #5) four times a week for a year): reduced
signs of seasonal allergies six months later (seasonal allergies; person with family history, no signs at start, 0.1-1.5 g HMB (Nutritional Liquid #3) once a day for 6 months): still shows no signs
signs of symptoms of asthma six months later (asthma; person with family history, no signs at start, 250 mg HMB (Nutritional Liquid #4) once a day for 6 months): still shows no signs
FEV1 one year later (asthma; person, mild intermittent asthma, baseline FEV1 83%, 1.5-6 g HMB (Nutritional Liquid #5) 4 times a week for a year): above 80%
symptoms of asthma one year later (asthma; person, mild intermittent asthma, 1.5-6 g HMB (Nutritional Liquid #5) 4 times a week for a year): reduced
FEV1 one year later (asthma; [7]): has not decreased
symptoms of asthma one year later (asthma; [7]): reduced
asthma exacerbation frequency (asthma; person, normally four exacerbations per year, 1-10 g HMB (Nutritional Liquid #5) four times a week for a year): decreases to once a year
spread of melanoma six months later (melanoma): has not spread
respiratory tract infections, including recurrence of pneumonia, during six months [2]: remains free of respiratory tract infections
return of ovarian cancer one year later (ovarian cancer): has not returned
spread of kidney tumor six months later (kidney tumors): has not spread
